The format of data set [1] is physicochemical. Here is the method: Vehicles were evaluated for their capacity to solubilize a cyclic urea compound. Several methods were used. In Method A, vehicles were heated to 70°-80° C. and weighed amounts of the cyclic urea compound were added incrementally until the compound no longer dissolved. This is a visual estimation of solubility. In Method B, vehicles were prepared as in Method A, then cooled to room temperature, and then reheated to 50° C. Suspensions were filtered at 50° C. and compound concentrations in the liltrate filtrate were measured using a high performance liquid chromatographic (HPLC) method, providing the results shown under Method B.
Specifically, the vehicles of Table 1 were prepared and evaluated for solubility of a cyclic urea antiviral agent. The agent for Example 1 was [4R--(4a, 5a, 6β, 7β)]-hexahydro-5,6-bis(hydroxy)-1,3-bis([(4-hydroxymethyl)phenyl]methyl)-4,7-bis(phenylmethyl)-2H-1,3-diazepin-2-one. This compound corresponds to Ex. No. 5U in the above-cited PCT Application WO 93/07128, and is sometimes hereinafter referred to as Ex. No. 5U. In Table 1, all percentages are by weight.

A further data set is described as follows: physchem. The class given is physicochemical. The text has this: The cyclic urea antiviral agents of this invention are generally poorly water-soluble. Poor water solubility could be related to low oral bioavailability and dose-related bioavailability. One effect of the formulation ingredients may be to alter water solubility. Water solubility in the presence of dilute concentrations of the formulation ingredients could then be related to oral bioavailability. Dilute formulation ingredients could mimic the dilution of an administered dosage form upon reaching the aqueous environment within the gastrointestinal tract. Aqueous solubility studies of cyclic urea antiviral agents were performed in the presence of dilute concentrations of possible formulation ingredients in this Example 4.
Specifically, aqueous solutions were prepared containing 4% (w/v) of the formulation ingredients listed. Excess solid compound [4R-(4α, 5α, 6β, 7β)]-hexahydro-5,6-bis (hydroxy)-1,3-bis ([(4-hydroxymethyl)phenyl]methyl)-4,7-bis (phenylmethyl)-2H-1,3-diazepin-2-one (Ex. No. 5U) was added and the samples were mixed 24 hours. Samples were filtered, and Ex. No. 5U solubility was determined by measuring filtrate drug concentrations using HPLC.

The conditions of data set [2]: in vivo; cited from earlier work.

The solubility is the concentration that dissolves in the medium under given conditions.

Converted amounts (≈) assume the structure as drawn.

For the compound `O=C1N(Cc2ccc(CO)cc2)[C@H](Cc2ccccc2)[C@H](O)[C@@H](O)[C@@H](Cc2ccccc2)N1Cc1ccc(CO)cc1` [Ex. No. 5U, [4R-(4α, 5α, 6β, 7β)]-hexahydro-5,6-bis(hydroxy)-1,3-bis([(4-hydroxymethyl)phenyl]methyl)-4,7-bis(phenylmethyl)-2H-1,3-diazepin-2-one], the “solubility in vehicle (in words)” value in data set [1] is “increased solubility”. The solubility at 24 h turned out to be 715 µg/mL (≈ 1260 µM) in the data set “physchem” (4% peg-60 hydrogenated castor oil, organic solvent or mixture); 5 µg/mL (≈ 8.82 µM) in the data set “physchem” (water); 12 µg/mL (≈ 21.2 µM) in “physchem” (water with 4% peg-8, organic solvent or mixture); 758 µg/mL (≈ 1340 µM) in the data set “physchem” (water, 4% gelucire 44/14); 11 µg/mL (≈ 19.4 µM) in the data set “physchem” (water, 4% glycerol dilaurate, organic solvent or mixture); 410 µg/mL (≈ 723 µM) in the data set “physchem” (water, 4% labrasol). Further, the solubility at 24 h in the data set “physchem” (water, 4% peg-4 laurate, organic solvent or mixture) was 81 µg/mL (≈ 143 µM); in the data set “physchem” (water, 4% peg-8 laurate, organic solvent or mixture), 283 µg/mL (≈ 499 µM); in “physchem” (water, 4% peg-8 stearate, organic solvent or mixture) it was 44 µg/mL (≈ 77.6 µM); in “physchem” (water, 4% peg-40 stearate, organic solvent or mixture), 718 µg/mL (≈ 1270 µM).

Regarding `COC1=CC(=O)C[C@@H](C)[C@]12Oc1c(Cl)c(OC)cc(OC)c1C2=O` [griseofulvin], the “oral bioavailability (in words)” value in data set [2] is on record as “increased”.

(Values after patent publication US5559110A, “Pharmaceutical formulations of cyclic urea type compounds” (The DuPont Merck Pharmaceutical Company, priority 1994, dated 1996).)
